ChEMBL document CHEMBL5113421, “Development of novel conformationally restricted selective Clk1/4 inhibitors through creating an intramolecular hydrogen bond involving an imide linker” (Eur J Med Chem, 2022)
Each block holds one compound with its values, some of them ahead of it.

Experiments:
[1] = target: T1, Dual specificity protein kinase CLK1 (Homo sapiens, UniProt P49759); experiment: Inhibition of human recombinant GST-tagged Clk1 (129 to 484 residues) expressed in Escherichia coli expression system at 100 nM using GRSRSRSRSRSRSRS peptide as substrate incubated for 15 mins in presence of ATP by phosphoimager analysis relative to control
Target sequence in this assay (P49759 whole entry, looked up, the tested form may be a part): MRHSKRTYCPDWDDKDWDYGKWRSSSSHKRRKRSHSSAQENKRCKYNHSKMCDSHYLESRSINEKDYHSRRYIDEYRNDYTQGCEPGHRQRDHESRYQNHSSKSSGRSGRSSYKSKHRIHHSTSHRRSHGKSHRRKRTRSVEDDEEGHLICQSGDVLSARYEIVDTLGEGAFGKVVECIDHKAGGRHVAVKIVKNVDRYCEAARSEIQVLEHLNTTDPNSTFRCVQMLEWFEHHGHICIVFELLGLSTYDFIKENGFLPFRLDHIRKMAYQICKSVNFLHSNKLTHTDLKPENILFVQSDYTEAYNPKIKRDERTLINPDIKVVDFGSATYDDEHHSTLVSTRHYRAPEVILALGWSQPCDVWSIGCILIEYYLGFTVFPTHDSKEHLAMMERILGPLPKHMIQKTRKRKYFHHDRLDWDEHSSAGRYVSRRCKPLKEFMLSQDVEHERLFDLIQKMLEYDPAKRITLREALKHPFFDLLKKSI

[2] = target: T1, Dual specificity protein kinase CLK1; experiment: Inhibition of human recombinant GST-tagged Clk1 (129 to 484 residues) expressed in Escherichia coli expression system using GRSRSRSRSRSRSRS peptide as substrate incubated for 15 mins in presence of ATP by phosphoimager analysis
Target sequence in this assay (P49759 whole entry, the tested form may be a part): as the sequence (P49759 whole entry, looked up, the tested form may be a part) above

T-24 = experiment: Antiproliferative activity against human T24 cells assessed as cell growth inhibition measured after 3 days by MTT assay; format: functional; conditions: T-24, 72 h, time 3 day
Homo sapiens [3] = species: Homo sapiens; experiment: Selectivity ratio of IC50 for human Clk2 to IC50 for human Clk1 by ADP-Glo assay
[4] = target: T2, Dual specificity protein kinase CLK2 (Homo sapiens, UniProt P49760); experiment: Inhibition of human recombinant GST-tagged Clk2 expressed in Baculovirus expression system using GRSRSRSRSRSRSRS peptide as substrate incubated for 15 mins in presence of ATP by phosphoimager analysis
Target sequence in this assay (P49760 whole entry): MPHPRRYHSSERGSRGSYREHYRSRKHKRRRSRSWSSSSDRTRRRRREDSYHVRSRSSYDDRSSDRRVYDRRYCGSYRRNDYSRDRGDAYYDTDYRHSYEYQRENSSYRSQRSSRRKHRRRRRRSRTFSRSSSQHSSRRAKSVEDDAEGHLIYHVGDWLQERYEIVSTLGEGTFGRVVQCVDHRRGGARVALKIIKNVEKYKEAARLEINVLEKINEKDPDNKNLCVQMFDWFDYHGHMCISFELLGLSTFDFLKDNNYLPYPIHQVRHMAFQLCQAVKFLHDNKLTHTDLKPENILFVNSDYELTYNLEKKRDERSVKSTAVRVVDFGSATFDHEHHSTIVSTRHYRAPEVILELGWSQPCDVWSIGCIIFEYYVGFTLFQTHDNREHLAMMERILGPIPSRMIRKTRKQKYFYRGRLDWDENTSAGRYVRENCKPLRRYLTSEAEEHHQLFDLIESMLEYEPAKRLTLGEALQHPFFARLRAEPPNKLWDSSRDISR

[5] = target: T2, Dual specificity protein kinase CLK2; experiment: Inhibition of human recombinant GST-tagged Clk2 expressed in Baculovirus expression system at 0.25 uM using GRSRSRSRSRSRSRS peptide as substrate incubated for 15 mins in presence of ATP by phosphoimager analysis relative to control
Target sequence in this assay (P49760 whole entry, looked up): as the sequence (P49760 whole entry) above

Homo sapiens [6] = species: Homo sapiens; experiment: Selectivity index, ratio of IC50 for human Clk2 to IC50 for human Clk1 by phosphoimager analysis
[7] = target: Casein kinase I isoform delta (Homo sapiens) (UniProt P48730); experiment: Inhibition of human recombinant GST tagged full length CSNK1D expressed in Baculovirus expression system at 1 uM relative to control
Sequence of Casein kinase I isoform delta (Homo sapiens) (P48730 whole entry, looked up, canonical isoform): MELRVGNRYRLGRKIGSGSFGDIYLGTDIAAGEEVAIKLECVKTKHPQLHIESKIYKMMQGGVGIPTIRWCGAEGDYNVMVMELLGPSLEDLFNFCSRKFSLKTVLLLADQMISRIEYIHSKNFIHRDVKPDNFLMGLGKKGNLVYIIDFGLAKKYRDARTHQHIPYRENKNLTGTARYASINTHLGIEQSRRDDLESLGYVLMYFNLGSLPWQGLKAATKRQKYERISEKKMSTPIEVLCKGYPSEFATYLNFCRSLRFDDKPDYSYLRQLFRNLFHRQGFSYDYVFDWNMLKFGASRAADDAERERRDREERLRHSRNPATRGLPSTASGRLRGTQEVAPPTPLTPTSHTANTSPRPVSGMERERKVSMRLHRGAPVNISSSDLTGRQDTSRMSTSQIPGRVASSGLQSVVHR

Homo sapiens [8] = species: Homo sapiens; experiment: Inhibition of CK2 (unknown origin) at 1 uM relative to control
[9] = target: Dual specificity protein kinase CLK3 (Homo sapiens) (UniProt P49761); experiment: Inhibition of human recombinant GST-tagged full length CLK3 expressed in Baculovirus expression system at 1 uM relative to control
[10] = target: T3, Dual specificity protein kinase CLK4 (Homo sapiens, UniProt Q9HAZ1); experiment: Inhibition of human recombinant GST tagged full length CLK4 expressed in Baculovirus expression system at 1 uM relative to control
Target sequence in this assay (Q9HAZ1 whole entry, looked up): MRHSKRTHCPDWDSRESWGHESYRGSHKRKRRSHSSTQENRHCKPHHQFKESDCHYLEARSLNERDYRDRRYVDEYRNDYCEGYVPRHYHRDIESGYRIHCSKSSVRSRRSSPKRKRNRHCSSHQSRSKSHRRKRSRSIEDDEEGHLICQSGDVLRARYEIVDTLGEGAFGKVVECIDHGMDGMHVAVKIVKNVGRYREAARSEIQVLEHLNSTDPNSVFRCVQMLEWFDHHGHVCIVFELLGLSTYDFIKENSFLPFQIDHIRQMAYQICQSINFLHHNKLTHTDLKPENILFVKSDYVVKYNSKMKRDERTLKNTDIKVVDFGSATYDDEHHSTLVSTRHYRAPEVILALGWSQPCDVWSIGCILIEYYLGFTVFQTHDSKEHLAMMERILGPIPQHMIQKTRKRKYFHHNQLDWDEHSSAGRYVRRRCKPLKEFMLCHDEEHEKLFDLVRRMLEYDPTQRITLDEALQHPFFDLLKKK

[11] = target: Dual specificity tyrosine-phosphorylation-regulated kinase 1A (Homo sapiens) (UniProt Q13627); experiment: Inhibition of human recombinant GST tagged full length DYRK1A expressed in Baculovirus expression system at 1 uM relative to control
[12] = target: T4, Serine/threonine-protein kinase haspin (Homo sapiens) (UniProt Q8TF76); experiment: Inhibition of human recombinant GST tagged full length Haspin catalytic domain expressed in Baculovirus expression system at 1 uM relative to control
T4 sequence (whole entry): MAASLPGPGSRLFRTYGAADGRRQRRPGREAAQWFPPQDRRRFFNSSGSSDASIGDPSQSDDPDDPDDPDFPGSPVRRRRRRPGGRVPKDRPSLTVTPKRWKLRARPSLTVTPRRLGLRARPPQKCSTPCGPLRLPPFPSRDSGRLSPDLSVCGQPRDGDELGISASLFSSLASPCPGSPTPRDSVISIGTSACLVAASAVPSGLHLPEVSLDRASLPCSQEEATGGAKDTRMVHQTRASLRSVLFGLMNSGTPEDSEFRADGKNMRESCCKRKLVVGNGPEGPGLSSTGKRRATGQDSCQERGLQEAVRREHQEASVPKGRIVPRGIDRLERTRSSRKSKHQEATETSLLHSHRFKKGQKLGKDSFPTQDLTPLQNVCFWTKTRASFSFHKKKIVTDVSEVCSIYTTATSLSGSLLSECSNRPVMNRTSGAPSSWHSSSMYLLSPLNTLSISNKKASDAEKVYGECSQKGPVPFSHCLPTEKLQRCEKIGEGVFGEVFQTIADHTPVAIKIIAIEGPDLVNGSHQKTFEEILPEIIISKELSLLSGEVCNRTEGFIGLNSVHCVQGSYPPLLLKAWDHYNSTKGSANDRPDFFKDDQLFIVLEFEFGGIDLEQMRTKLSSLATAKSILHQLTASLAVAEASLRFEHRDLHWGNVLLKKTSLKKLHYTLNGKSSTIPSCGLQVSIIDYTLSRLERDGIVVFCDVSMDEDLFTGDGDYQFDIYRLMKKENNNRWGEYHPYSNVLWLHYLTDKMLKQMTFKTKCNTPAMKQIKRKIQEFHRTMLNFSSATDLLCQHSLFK

[13] = target: Homeodomain-interacting protein kinase 1 (Homo sapiens) (UniProt Q86Z02); experiment: Inhibition of human recombinant GST tagged HIPK1 expressed in Baculovirus expression system at 1 uM relative to control
[14] = target: Serine/threonine-protein kinase pim-1 (Homo sapiens) (UniProt P11309); experiment: Inhibition of human recombinant His tagged full length Pim1 expressed in Baculovirus expression system at 1 uM relative to control
Sequence of Serine/threonine-protein kinase pim-1 (Homo sapiens) (P11309 whole entry, looked up): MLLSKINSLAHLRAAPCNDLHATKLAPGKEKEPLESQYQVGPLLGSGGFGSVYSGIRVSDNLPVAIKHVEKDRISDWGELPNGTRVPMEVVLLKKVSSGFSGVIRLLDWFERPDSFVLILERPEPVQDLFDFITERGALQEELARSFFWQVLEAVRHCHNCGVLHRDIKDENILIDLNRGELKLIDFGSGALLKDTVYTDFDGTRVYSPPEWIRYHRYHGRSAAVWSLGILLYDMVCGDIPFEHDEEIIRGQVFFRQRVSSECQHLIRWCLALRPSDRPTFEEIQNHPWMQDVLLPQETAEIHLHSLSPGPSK

[15] = target: SRSF protein kinase 1 (Homo sapiens) (UniProt Q96SB4); experiment: Inhibition of human recombinant His tagged full length SRPK1 expressed in Baculovirus expression system at 1 uM relative to control
Sequence of SRSF protein kinase 1 (Homo sapiens) (Q96SB4 whole entry): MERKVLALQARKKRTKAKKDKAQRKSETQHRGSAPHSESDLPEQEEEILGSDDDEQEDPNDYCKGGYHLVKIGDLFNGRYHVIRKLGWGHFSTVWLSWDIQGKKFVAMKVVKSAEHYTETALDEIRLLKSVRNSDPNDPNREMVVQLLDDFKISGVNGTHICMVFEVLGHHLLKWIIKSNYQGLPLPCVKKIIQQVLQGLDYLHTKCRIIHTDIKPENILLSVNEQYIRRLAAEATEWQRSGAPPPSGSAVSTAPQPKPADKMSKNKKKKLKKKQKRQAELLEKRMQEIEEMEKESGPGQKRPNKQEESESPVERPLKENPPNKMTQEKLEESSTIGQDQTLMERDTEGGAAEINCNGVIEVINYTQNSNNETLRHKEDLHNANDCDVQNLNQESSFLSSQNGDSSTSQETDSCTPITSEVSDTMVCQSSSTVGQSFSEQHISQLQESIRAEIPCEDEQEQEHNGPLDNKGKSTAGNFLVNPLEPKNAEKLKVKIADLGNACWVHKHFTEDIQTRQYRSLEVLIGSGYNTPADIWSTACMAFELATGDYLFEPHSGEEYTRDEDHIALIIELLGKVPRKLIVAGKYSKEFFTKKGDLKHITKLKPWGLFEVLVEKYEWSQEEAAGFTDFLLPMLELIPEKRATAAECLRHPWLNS

[16] = target: BDNF/NT-3 growth factors receptor (Homo sapiens) (UniProt Q16620); experiment: Inhibition of human recombinant His tagged full length TRKB expressed in Baculovirus expression system at 1 uM relative to control
Sequence of BDNF/NT-3 growth factors receptor (Homo sapiens) (Q16620 32-822 limits assumed): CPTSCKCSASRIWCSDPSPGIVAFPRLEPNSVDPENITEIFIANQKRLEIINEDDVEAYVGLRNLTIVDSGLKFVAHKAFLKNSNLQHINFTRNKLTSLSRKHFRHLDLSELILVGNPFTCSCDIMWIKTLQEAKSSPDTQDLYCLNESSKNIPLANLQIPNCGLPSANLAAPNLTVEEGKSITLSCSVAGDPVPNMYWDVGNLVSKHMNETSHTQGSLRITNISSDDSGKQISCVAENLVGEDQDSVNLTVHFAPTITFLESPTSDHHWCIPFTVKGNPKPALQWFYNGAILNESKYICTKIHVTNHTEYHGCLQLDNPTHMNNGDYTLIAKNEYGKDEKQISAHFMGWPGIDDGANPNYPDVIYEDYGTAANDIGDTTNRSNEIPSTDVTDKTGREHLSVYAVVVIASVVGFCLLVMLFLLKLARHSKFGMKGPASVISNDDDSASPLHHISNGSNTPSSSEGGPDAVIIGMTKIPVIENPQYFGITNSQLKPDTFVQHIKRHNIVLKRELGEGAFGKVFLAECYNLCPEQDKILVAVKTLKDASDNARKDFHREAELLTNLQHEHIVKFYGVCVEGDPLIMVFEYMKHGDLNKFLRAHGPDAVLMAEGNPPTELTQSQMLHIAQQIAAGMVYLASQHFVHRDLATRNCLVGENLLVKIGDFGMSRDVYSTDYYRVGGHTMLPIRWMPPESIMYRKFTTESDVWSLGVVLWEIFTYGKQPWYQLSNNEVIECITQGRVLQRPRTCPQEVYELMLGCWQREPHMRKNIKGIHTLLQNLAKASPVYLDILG

Homo sapiens [17] = species: Homo sapiens; experiment: Selectivity ratio of IC50 for human Clk2 to IC50 for human Clk1
Homo sapiens [18] = species: Homo sapiens; experiment: Selectivity ratio of IC50 for human DYRK1A to IC50 for human Clk1
[19] = target: Cyclin-dependent kinase 5/CDK5 activator 1 (Homo sapiens) (UniProt Q00535+Q15078); experiment: Inhibition of human recombinant GST tagged/His-tagged full length CDK5/p25 expressed in Baculovirus expression system at 1 uM relative to control
[20] = target: T5, Dual specificity tyrosine-phosphorylation-regulated kinase 2 (Homo sapiens) (UniProt Q92630); experiment: Inhibition of human recombinant GST tagged full length DYRK2 expressed in Escherichia coli expression system at 1 uM relative to control
T5 sequence (whole entry): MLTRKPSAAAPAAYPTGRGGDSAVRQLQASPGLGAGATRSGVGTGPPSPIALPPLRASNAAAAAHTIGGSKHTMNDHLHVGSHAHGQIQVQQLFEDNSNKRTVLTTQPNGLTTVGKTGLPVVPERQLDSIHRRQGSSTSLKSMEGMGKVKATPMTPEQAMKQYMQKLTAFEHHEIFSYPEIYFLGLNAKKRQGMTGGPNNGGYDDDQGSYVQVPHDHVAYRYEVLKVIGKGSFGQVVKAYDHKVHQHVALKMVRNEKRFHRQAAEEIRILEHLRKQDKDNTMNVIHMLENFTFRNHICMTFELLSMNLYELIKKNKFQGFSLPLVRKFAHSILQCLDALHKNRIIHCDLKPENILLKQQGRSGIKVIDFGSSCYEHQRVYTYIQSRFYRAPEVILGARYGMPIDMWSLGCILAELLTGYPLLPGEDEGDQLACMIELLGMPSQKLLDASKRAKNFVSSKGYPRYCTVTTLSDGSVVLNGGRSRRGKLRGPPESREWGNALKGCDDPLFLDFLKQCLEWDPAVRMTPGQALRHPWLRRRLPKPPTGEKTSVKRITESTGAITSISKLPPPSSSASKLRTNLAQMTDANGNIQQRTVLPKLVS

[21] = target: T3, Dual specificity protein kinase CLK4; experiment: Inhibition of human recombinant GST tagged full length CLK4 expressed in Baculovirus expression system at 1 uM

Compound: CCOc1ccccc1C(=O)NC(=O)c1cc2cc(OC)ccc2s1
- inhibition [1]: 63.3%
- IC50 [2]: 0.0794 µM
- GI50 (T-24): < 0.1 µM

Compound: COc1ccc2sc(C(=O)N(C)C(=O)c3ccccc3OC)cc2c1
- inhibition [1]: 15.7%

Compound: COc1ccc2sc(C(=O)NC(=O)c3cccc4c3OCCO4)cc2c1
- inhibition [1]: 9.2%

Compound: CC(C)(C)c1ccc(C(=O)Nc2cn3cc(-c4cn[nH]c4)ccc3n2)cn1
- Ratio IC50 (Homo sapiens [3]): 2.2

Compound: COc1ccc2sc(C(=O)NC(=O)c3ccccc3)cc2c1
- inhibition [1]: 56.1%

Compound: COc1ccc2sc(C(=O)NC(=O)c3cccc(F)n3)cc2c1
- inhibition [1]: 67.1%
- IC50 [2]: 0.0209 µM
- IC50 [4]: 0.25 µM
- inhibition [5]: 53.8%
- Ratio IC50 (Homo sapiens [6]): 12
- GI50 (T-24): > 15 µM

Compound: COc1ccc2sc(C(=O)N(C)Cc3cc(F)cc(F)c3)cc2c1
- Ratio IC50 (Homo sapiens [17]): 9.8
- Ratio IC50 (Homo sapiens [18]): 28

Compound: COc1ccc2sc(C(=O)NC(=O)c3cccc(Cl)c3OC)cc2c1
- inhibition [1]: 2.2%

Compound: COc1ccc2sc(C(=O)NC(=O)c3cc(Cl)cnc3OC)cc2c1
- inhibition [1]: 44.9%

Compound: COc1ccc2sc(C(=O)NC(=O)c3cccc(Cl)n3)cc2c1
- inhibition [1]: 33%

Compound: COc1ccc2sc(C(=O)NC(=O)c3ccccc3C)cc2c1
- inhibition [1]: 6.5%

Compound: COc1ccc2sc(C(=O)NC(=O)c3cc(F)cc(F)c3)cc2c1
- inhibition [1]: 54.6%

Compound: COc1ccc2sc(C(=O)NC(=O)c3cccc(OC)n3)cc2c1
- inhibition [1]: 42.3%

Compound: COc1ccc2sc(C(=O)NC(=O)c3ccccc3Cl)cc2c1
- inhibition [1]: 61.4%
- IC50 [2]: 0.092 µM

Compound: COc1ccc2sc(C(=O)NC(=O)c3cc(C)on3)cc2c1
- inhibition [1]: 7.3%

Compound: COc1ccc2sc(C(=O)NC(=O)c3cccc4c3OC(F)(F)O4)cc2c1
- inhibition [1]: 43.1%

Compound: COc1ccc2sc(C(=O)NC(=O)c3ccno3)cc2c1
- inhibition [1]: 12.1%

Compound: COc1ccc2sc(C(=O)NC(=O)c3ccccc3OC(F)(F)F)cc2c1
- inhibition [1]: 64.4%
- IC50 [2]: 0.049 µM
- GI50 (T-24): 1.1 µM

Compound: CCCOc1ccccc1C(=O)NC(=O)c1cc2cc(OC)ccc2s1
- inhibition [1]: 62.3%
- IC50 [2]: 0.0898 µM

Compound: COc1cc(F)c(C(=O)NC(=O)c2cc3cc(OC)ccc3s2)c(F)c1
- inhibition [1]: 10.6%

Compound: COc1ccc2sc(C(=O)NC(=O)c3ccccc3F)cc2c1
- inhibition [1]: 16.5%

Now from value to compound, other results behind:

- inhibition [1]: 12.2%
Compound: COc1ccc2sc(C(=O)NC(=O)c3c(OC)cccc3OC)cc2c1

- inhibition [1]: 36.5%
Compound: COc1cccc(C(=O)NC(=O)c2cc3cc(OC)ccc3s2)c1

- inhibition [1]: 9.6%
Compound: COc1ccc2sc(C(=O)NC(=O)c3cc(C(F)(F)F)ccc3OC)cc2c1

- inhibition [1]: 86.6%
- IC50 [2]: 0.0346 µM
Compound: COc1ccc2sc(C(=O)NC(=O)c3ccccc3OC)cc2c1

- inhibition [1]: 27.7%
Compound: COc1ccc2sc(C(=O)NC(=O)c3cccc(OC)c3OC)cc2c1

- inhibition [1]: 74.5%
- IC50 [2]: 0.004 µM
- IC50 [4]: > 0.25 µM
- inhibition [5]: 47.1%
- Ratio IC50 (Homo sapiens [6]): > 62.5
- inhibition [7]: 11%
- inhibition (Homo sapiens [8]): 5%
- inhibition [9]: 59%
- inhibition [10]: 96%
- inhibition [11]: 48%
- inhibition [12]: 29%
- inhibition [13]: 7%
- inhibition [14]: 52%
- inhibition [15]: 4%
- inhibition [16]: 10%
Compound: COc1ccc2sc(C(=O)NC(=O)c3ccc(F)cc3OC)cc2c1
- GI50 (T-24): > 15 µM

- inhibition [1]: 50.9%
Compound: COc1ccc2sc(C(=O)NC(=O)c3ccc(C)cc3OC)cc2c1

- inhibition [1]: 49.5%
Compound: COc1ccc2sc(C(=O)NC(=O)c3ccc(Cl)cc3OC)cc2c1

- inhibition [1]: 42.2%
Compound: COc1ccc(C(=O)NC(=O)c2cc3cc(OC)ccc3s2)c(OC)c1
- GI50 (T-24): > 15 µM

- inhibition [1]: 12.4%
Compound: COc1ccc2sc(C(=O)NC(=O)c3ccc(OC)c(OC)c3)cc2c1

- inhibition [1]: 65.6%
- IC50 [2]: 0.07 µM
Compound: COc1ccc2sc(C(=O)NC(=O)c3cc(F)ccc3F)cc2c1

- inhibition [1]: 61%
- IC50 [2]: 0.075 µM
- IC50 [4]: > 0.25 µM
- inhibition [5]: 3.4%
- Ratio IC50 (Homo sapiens [6]): > 3.3
Compound: COc1ccc2sc(C(=O)NC(=O)c3ccc(Br)cc3OC)cc2c1

- inhibition [1]: 30.8%
Compound: COc1ccc(OC)c(C(=O)NC(=O)c2cc3cc(OC)ccc3s2)c1

- inhibition [1]: 51.8%
Compound: COc1ccc2sc(C(=O)NC(=O)c3cc(C)cc(F)c3)cc2c1

- inhibition [1]: 7.8%
Compound: COc1ccc(F)c(C(=O)NC(=O)c2cc3cc(OC)ccc3s2)c1

- inhibition [1]: 5.9%
Compound: COc1ccc2sc(C(=O)NC(=O)c3ccc(OC)c(F)c3)cc2c1

- inhibition [1]: 35.7%
Compound: COc1ccc2sc(C(=O)NC(=O)c3ccc(F)cc3)cc2c1

- inhibition [1]: 42.7%
Compound: COc1ccc2sc(C(=O)NC(=O)c3cc(C)ccc3OC)cc2c1

- inhibition [1]: 87.1%
- IC50 [2]: 0.0097 µM
- IC50 [4]: 0.486 µM
- inhibition [5]: 19.9%
- Ratio IC50 (Homo sapiens [6]): 50
- inhibition [19]: 3%
- inhibition [7]: 7%
- inhibition (Homo sapiens [8]): 4%
- inhibition [9]: 57%
- inhibition [10]: 45%
- inhibition [11]: 45%
- inhibition [20]: 14%
- inhibition [12]: 24%
- inhibition [13]: 1%
- inhibition [14]: 31%
- inhibition [15]: 8%
- inhibition [16]: 3%
- IC50 [21]: 0.0066 µM
Compound: COc1ccc2sc(C(=O)NC(=O)c3cc(Cl)ccc3OC)cc2c1
- GI50 (T-24): 1.1 µM

- inhibition [1]: 38.5%
Compound: COc1ccc2sc(C(=O)NC(=O)c3cccc(F)c3)cc2c1

- inhibition [1]: 83.3%
- IC50 [2]: 0.0184 µM
- IC50 [4]: 0.25 µM
- inhibition [5]: 52.6%
- Ratio IC50 (Homo sapiens [6]): 13.6
Compound: COc1ccc2sc(C(=O)NC(=O)c3cc(F)ccc3OC)cc2c1
